Measurements from US8309546B2, “Morpholinopurine derivatives” (Daiichi Sankyo Company, Limited, priority 2008, dated 2012).
Where “and” joins values, the source holds several entries; their conditions need not be identical. Equal values may be shown once.

What was measured:
[1] = molecular target: PI3Kα (Homo sapiens, UniProt P42336); experiment: PI3K kinase activity inhibition assay; format: biochemical; details: Kinase-Glo Plus ATP detection, read-out: IC50 against PI3K
How it was run: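 PI3Kα (50 nM solution) was reacted with 30 μM ATP and 45 μM PIP2 solutions, each in HEPES pH 7.4 with MgCl2 and DTT, for 2 h at room temperature. Remaining ATP was measured by Kinase-Glo Plus luminescence, and inhibition was derived from ATP consumed. IC50 was taken from curve fitting of the serial dilutions.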

[2] = system: human endometrial cancer cell strain AN3CA; experiment: Cell growth inhibition test (MTT), AN3CA; format: cell-based; details: AN3-CA, 72 h, 3 days culture, read-out: concentration exhibiting anti-cell effect (GI50)
How it was run: (§1)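 AN3CA, IGROV1 and HT29 seeded at 5000, 1000 and 5000 cells/well; compound added next day, 3 days at 37° C, 5% CO2. MTT 4 h, formazan in DMSO read at 540 nm. GI50 is the concentration giving 50% growth rate (T/C %, corrected for day-of-addition absorbance), interpolated between two bracketing concentrations.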

[3] = system: human ovary cancer cell strain IGROV1; experiment: Cell growth inhibition test (MTT), IGROV1; format: cell-based; details: IGROV-1, 72 h, IGROV1, 3 days culture, read-out: concentration exhibiting anti-cell effect (GI50)
How it was run: as §1

[4] = system: human colon cancer cell strain HT29; experiment: Cell growth inhibition test (MTT), HT29; format: cell-based; details: HT-29, 72 h, HT29, 3 days culture, read-out: concentration exhibiting anti-cell effect (GI50)
How it was run: as §1

[5] = system: human endometrial cancer cell strain AN3CA tumor; experiment: Anti-tumor effect assay using mouse subcutaneous transplantation model; format: in vivo, female nude mouse; details: AN3-CA, oral, tumor weight vs negative control, read-out: Anti-tumor effect (tumor growth inhibition rate)
Protocol: A tumor section was prepared from a human endometrial cancer cell strain AN3CA tumor mass formed in a female nude mouse as a subcutaneously transplanted tumor and then a xenograft model was prepared by transplanting the tumor section into female nude mouse. Tumor-bearing mice having an estimated tumor volume (long diameter×short diameter×short diameter/2) of 80 to 200 mm^3 were divided, so that there should be no significant difference in the mean estimated tumor volume and body weight as compared with the negative control group to perform a test. The test compound was orally administered at a predetermined dose for 8 consecutive days. On the following day of the final administration day, tumor-bearing mice were anesthetized and exsanguinated to death and a tumor mass was isolated to measure tumor weight (the compounds of Examples 1, 3, 6, 8, 11, 12, and 14). Furthermore, as a similar test, the test compound was orally administered for 5 consecutive days, animals were sacrificed on the final administration day, and tumor weight was measured (the compounds of Examples 60, 63, 75, 77, 79, 89, 92, 107, 108, 109, 110, and 127).
In all the tests, anti-tumor effect was calculated by the following formula. {1−(tumor weight in compound treatment group/tumor weight in negative control group)}×100

[6] = molecular target: T1, human mTOR (His-tagged mTOR (1362C)) (Homo sapiens, UniProt P42345); experiment: mTOR kinase activity inhibition assay; format: biochemical; details: HTRF, read-out: IC50 against mTOR
T1 construct: the 1362 to 2549 amino acid portion on the C terminus side of human mTOR; His tag (N); made in house
T1 sequence (P42345 1362-2549): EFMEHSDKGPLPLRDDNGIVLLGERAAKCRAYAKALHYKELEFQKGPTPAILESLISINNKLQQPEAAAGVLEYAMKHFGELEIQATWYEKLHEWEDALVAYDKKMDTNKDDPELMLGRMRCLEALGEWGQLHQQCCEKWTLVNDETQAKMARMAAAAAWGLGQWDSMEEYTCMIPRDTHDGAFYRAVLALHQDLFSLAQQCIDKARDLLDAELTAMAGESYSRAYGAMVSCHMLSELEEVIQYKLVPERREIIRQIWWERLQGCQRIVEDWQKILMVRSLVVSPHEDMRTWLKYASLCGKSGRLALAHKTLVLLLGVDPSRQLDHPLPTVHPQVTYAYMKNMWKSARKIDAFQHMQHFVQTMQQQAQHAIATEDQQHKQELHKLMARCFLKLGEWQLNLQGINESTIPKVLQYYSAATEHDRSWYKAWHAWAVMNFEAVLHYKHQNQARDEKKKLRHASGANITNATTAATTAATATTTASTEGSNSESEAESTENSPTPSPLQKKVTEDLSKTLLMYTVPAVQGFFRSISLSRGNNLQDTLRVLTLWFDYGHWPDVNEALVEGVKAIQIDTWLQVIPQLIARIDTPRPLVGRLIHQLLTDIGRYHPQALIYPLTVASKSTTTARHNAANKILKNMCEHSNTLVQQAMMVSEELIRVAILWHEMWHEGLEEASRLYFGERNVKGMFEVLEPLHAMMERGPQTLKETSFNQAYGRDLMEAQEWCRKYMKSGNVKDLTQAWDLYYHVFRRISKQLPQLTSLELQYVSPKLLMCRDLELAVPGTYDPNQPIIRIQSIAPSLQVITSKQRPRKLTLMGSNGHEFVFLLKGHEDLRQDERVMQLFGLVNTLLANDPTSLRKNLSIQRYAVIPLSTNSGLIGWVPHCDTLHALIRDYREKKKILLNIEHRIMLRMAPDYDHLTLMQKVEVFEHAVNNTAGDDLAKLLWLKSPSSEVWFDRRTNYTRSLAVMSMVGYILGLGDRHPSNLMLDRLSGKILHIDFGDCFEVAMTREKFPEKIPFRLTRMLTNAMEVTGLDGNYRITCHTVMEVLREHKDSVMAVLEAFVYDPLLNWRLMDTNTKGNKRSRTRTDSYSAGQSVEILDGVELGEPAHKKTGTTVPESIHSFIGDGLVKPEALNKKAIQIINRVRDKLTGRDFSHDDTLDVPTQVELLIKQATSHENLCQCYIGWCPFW
How it was run: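 Crude His-tagged mTOR (aa 1362–2549) from stable HEK293 cells, with 8 μg/ml biotinylated peptide in 50 mM HEPES pH 7.5, 20 mM MnCl2; compound diluted in 20 μM ATP solution, reaction 3 h at room temperature. Phospho-peptide detected by HTRF (anti-phospho-S6K Thr389 cryptate/streptavidin-XL665, overnight at 4°C), 665/620 nm ratio. IC50 derived from curve fit of % inhibition.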

PI3Kα, sequence (P42336 whole entry, species assumed): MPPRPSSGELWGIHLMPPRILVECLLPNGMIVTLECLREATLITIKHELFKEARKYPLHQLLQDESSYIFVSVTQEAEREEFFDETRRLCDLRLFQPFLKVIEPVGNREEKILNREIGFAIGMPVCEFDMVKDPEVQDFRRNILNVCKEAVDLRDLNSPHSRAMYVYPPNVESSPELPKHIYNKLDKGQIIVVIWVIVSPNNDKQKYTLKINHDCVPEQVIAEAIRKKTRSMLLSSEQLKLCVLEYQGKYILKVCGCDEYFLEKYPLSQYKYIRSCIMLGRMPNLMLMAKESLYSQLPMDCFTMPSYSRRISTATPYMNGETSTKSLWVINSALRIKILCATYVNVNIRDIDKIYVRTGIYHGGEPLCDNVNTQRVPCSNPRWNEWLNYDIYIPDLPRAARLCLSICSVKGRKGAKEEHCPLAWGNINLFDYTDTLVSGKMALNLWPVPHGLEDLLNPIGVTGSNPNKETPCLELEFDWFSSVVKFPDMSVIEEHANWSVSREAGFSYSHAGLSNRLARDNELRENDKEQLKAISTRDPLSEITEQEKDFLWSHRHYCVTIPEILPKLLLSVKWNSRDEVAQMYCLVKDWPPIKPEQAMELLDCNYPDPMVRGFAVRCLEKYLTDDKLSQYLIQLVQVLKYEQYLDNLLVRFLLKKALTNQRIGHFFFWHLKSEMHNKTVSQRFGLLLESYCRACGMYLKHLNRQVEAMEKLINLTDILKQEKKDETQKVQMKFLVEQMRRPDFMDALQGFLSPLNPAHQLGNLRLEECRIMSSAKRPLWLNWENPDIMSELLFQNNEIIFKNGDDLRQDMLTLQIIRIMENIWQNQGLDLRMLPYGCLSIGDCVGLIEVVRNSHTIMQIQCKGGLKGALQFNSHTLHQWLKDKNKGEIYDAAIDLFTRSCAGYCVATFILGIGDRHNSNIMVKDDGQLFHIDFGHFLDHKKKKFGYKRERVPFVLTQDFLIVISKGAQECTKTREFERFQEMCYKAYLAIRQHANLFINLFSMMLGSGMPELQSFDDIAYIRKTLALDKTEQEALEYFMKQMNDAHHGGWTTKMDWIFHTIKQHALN
PI3Kα, sequence (P27986 whole entry partner, species assumed): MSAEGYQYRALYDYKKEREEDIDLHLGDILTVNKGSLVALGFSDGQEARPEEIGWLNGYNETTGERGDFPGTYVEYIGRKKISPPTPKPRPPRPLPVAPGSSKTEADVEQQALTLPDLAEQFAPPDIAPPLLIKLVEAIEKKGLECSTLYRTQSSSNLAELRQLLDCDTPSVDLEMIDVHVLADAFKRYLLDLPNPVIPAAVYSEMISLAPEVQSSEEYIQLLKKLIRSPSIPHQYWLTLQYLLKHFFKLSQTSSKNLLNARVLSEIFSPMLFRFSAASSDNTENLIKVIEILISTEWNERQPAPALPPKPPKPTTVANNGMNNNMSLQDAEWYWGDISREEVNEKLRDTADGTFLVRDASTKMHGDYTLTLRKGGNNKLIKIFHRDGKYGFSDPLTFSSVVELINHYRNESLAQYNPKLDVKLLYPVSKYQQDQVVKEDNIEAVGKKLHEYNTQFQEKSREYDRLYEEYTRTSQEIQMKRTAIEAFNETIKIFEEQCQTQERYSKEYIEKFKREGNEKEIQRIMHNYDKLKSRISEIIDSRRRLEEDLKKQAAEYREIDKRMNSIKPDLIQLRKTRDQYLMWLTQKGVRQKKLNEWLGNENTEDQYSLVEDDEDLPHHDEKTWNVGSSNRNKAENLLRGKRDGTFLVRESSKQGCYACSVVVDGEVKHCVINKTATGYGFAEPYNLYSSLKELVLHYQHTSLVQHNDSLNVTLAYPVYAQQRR

Row | SMILES | IC50 [1] | GI50 [2] | GI50 [3] | GI50 [4] | inhibition in vivo at 10 mg/kg/day ([5]; 10 mg/kg/day, 8 or 5 consecutive days depending on compound) | inhibition in vivo at 20 mg/kg/day ([5]; 20 mg/kg/day, consecutive days) | IC50 [6]
1 | C[C@@H]1CN(c2nc3c(N4CCOCC4)nc(-c4cnc(N)nc4)nc3n2CC2CC2)C[C@H](C)N1 [Example 12, 5-{9-(Cyclopropylmethyl)-8-(cis-3,5-dimethylpiperazin-1-yl)-6-morpholin-4-yl-9H-purin-2-yl}pyrimidin-2-amine] | 10 to 20 nM and 20 to 50 nM | ≤ 5 µM | ≤ 5 µM | ≤ 5 µM | 61% | 71% | 
2 | CC(C)Cn1c(N2CCN[C@@H](C)C2)nc2c(N3CCOCC3)nc(-c3cnc(N)nc3)nc21 [Example 51, 5-{9-Isobutyl-8-[(3S)-3-methylpiperazin-1-yl]-6-morpholin-4-yl-9H-purin-2-yl}pyrimidin-2-amine] | 10 to 20 nM | ≤ 5 µM | ≤ 5 µM | ≤ 5 µM |  |  | 10 to 30 nM
3 | CC(C)Cn1c(N2CCN[C@H](C)C2)nc2c(N3CCOCC3)nc(-c3cnc(N)nc3)nc21 [Example 52, 5-{9-Isobutyl-8-[(3R)-3-methylpiperazin-1-yl]-6-morpholin-4-yl-9H-purin-2-yl}pyrimidin-2-amine] | < 10 nM | ≤ 5 µM | ≤ 5 µM | ≤ 5 µM |  |  | 30 to 100 nM
4 | Nc1ncc(-c2nc(N3CCOCC3)c3nc(N4CCN(C(=O)Cn5ccnc5)CC4)n(CC4CC4)c3n2)cn1 [Example 56, 5-{9-(Cyclopropylmethyl)-8-[4-(1H-imidazol-1-ylacetyl)piperazin-1-yl]-6-morpholin-4-yl-9H-purin-2-yl}pyrimidin-2-amine] | < 10 nM | ≤ 5 µM | ≤ 5 µM | ≤ 5 µM |  |  | 10 to 30 nM
5 | C[C@H]1CN(c2nc3c(N4CCOCC4)nc(-c4cnc(N)nc4)nc3n2CC(F)(F)F)CCN1 [Example 58, 5-{8-[(3S)-3-Methylpiperazin-1-yl]-6-morpholin-4-yl-9-(2,2,2-trifluoroethyl)-9H-purin-2-yl}pyrimidin-2-amine] | < 10 nM | ≤ 5 µM | ≤ 5 µM | ≤ 5 µM |  |  | 10 to 30 nM
6 | C[C@@H]1CN(c2nc3c(N4CCOCC4)nc(-c4cnc(N)nc4)nc3n2CC(F)(F)F)CCN1 [Example 59, 5-{8-[(3R)-3-Methylpiperazin-1-yl]-6-morpholin-4-yl-9-(2,2,2-trifluoroethyl)-9H-purin-2-yl}pyrimidin-2-amine] | < 10 nM | ≤ 5 µM | ≤ 5 µM | ≤ 5 µM |  |  | 10 to 30 nM
7 | Cc1nc(N)ncc1-c1nc(N2CCOCC2)c2nc(N3CC[C@@H](NS(C)(=O)=O)C3)n(CC3CC3)c2n1 [Example 72, N-{(3R)-1-[2-(2-Amino-4-methylpyrimidin-5-yl)-9-(cyclopropylmethyl)-6-morpholin-4-yl-9H-purin-8-yl]pyrrolidin-3-yl}methanesulfonamide] | < 10 nM | ≤ 5 µM | ≤ 5 µM | ≤ 5 µM |  |  | ≥ 500 nM
8 | Cc1nc(N)ncc1-c1nc(N2CCOCC2)c2nc(N3CC[C@H](NS(C)(=O)=O)C3)n(CC3CC3)c2n1 [Example 73, N-{(3S)-1-[2-(2-Amino-4-methylpyrimidin-5-yl)-9-(cyclopropylmethyl)-6-morpholin-4-yl-9H-purin-8-yl]pyrrolidin-3-yl}methanesulfonamide] | < 10 nM | ≤ 5 µM | ≤ 5 µM | ≤ 5 µM |  |  | ≥ 500 nM
9 | C[C@H]1CN(c2nc3c(N4CCOCC4)nc(-c4cnc(N)nc4)nc3n2CC2CC2)CCN1 [Example 91, 5-{9-(Cyclopropylmethyl)-8-[(3S)-3-methylpiperazin-1-yl]-6-morpholin-4-yl-9H-purin-2-yl}pyrimidin-2-amine] | < 10 nM | ≤ 5 µM | ≤ 5 µM | ≤ 5 µM |  |  | 10 to 30 nM
10 | C[C@@H]1CN(c2nc3c(N4CCOCC4)nc(-c4cnc(N)nc4)nc3n2CC2CC2)CCN1 [Example 94, 5-{9-(Cyclopropylmethyl)-8-[(3R)-3-methylpiperazin-1-yl]-6-morpholin-4-yl-9H-purin-2-yl}pyrimidin-2-amine] | < 10 nM | ≤ 5 µM | ≤ 5 µM | ≤ 5 µM |  |  | 10 to 30 nM
11 | C[C@@H]1CN(c2nc3c(N4CCOCC4)nc(-c4cnc(N)nc4)nc3n2CC(F)(F)F)C[C@H](C)N1C(=O)CO [Example 120] | < 10 nM | ≤ 5 µM | ≤ 5 µM | ≤ 5 µM |  |  | < 10 nM
12 | CC(=O)N1CCN(c2nc3c(N4CCOCC4)nc(-c4cnc(N)nc4)nc3n2CC(F)(F)F)CC1(C)C [Example 122, 5-[8-(4-Acetyl-3,3-dimethylpiperazin-1-yl)-6-morpholin-4-yl-9-(2,2,2-trifluoroethyl)-9H-purin-2-yl]pyrimidin-2-amine] | < 10 nM | ≤ 5 µM | ≤ 5 µM | ≤ 5 µM |  |  | < 10 nM
13 | CC1(C)CN(c2nc3c(N4CCOCC4)nc(-c4cnc(N)nc4)nc3n2CC(F)(F)F)CCN1C(=O)CO [Example 123] | 10 to 20 nM | ≤ 5 µM | ≤ 5 µM | ≤ 5 µM |  |  | < 10 nM
14 | CC(O)C(=O)N1[C@H](C)CN(c2nc3c(N4CCOCC4)nc(-c4cnc(N)nc4)nc3n2CC(F)(F)F)C[C@@H]1C (stereo partly drawn) [Example 124, 1-{4-[2-(2-Aminopyrimidin-5-yl)-6-morpholin-4-yl-9-(2,2,2-trifluoroethyl)-9H-purin-8-yl]-cis-2,6-dimethylpiperazin-1-yl}-1-oxopropan-2-ol] | 10 to 20 nM | ≤ 5 µM | ≤ 5 µM | ≤ 5 µM |  |  | < 10 nM
15 | C[C@H]1CN(c2nc3c(N4CCOCC4)nc(-c4cnc(N)nc4)nc3n2CC(F)(F)F)CCN1C(=O)CO [Example 125, 2-{(2S)-4-[2-(2-Aminopyrimidin-5-yl)-6-morpholin-4-yl-9-(2,2,2-trifluoroethyl)-9H-purin-8-yl]-2-methylpiperazin-1-yl}-2-oxoethanol] | < 10 nM | ≤ 5 µM | ≤ 5 µM | ≤ 5 µM |  |  | < 10 nM
16 | C[C@@H]1CN(c2nc3c(N4CCOCC4)nc(-c4cnc(N)nc4)nc3n2CC(F)(F)F)CCN1C(=O)CO [Example 126, 2-{(2R)-4-[2-(2-Aminopyrimidin-5-yl)-6-morpholin-4-yl-9-(2,2,2-trifluoroethyl)-9H-purin-8-yl]-2-methylpiperazin-1-yl}-2-oxoethanol] | < 10 nM | ≤ 5 µM | ≤ 5 µM | ≤ 5 µM |  |  | < 10 nM
